Patent publication US7629318B2, “Immunosuppressant compounds, methods and uses related thereto” (priority 2002, dated 2009)
“And” between values parts separate entries of the source, which are not always exact repeats. Equal entries are not always repeated. Where two headings read alike, the source gives them in different places. Numbered stars: 1 amine (or outer) side, 2 acyl side, 3 side chain; on linkers, the order of the positions; unused ones are H or OH. Square brackets hold non-standard residues; d marks the D form. Peptide text beside a SMILES is read from it. * marks the point of attachment. ξ: configuration not given here. Gly(1-amidinopiperidin-4-yl) = N=C(N)N1CCC([C@H](N)C(=O)O)CC1; X1 = CC(C)c1oc([C@H](CO)N[*:1])nc1C(=O)[*:2]; Pro(3R-Ph) = O=C(O)[C@H]1NCC[C@@H]1c1ccccc1; Met(O) = CS(=O)CC[C@H](N)C(=O)O; Tic = O=C(O)[C@@H]1Cc2ccccc2CN1; Cha = N[C@@H](CC1CCCCC1)C(=O)O; ξDisc = O=C(O)C1NCc2ccccc21; Nle = CCCC[C@H](N)C(=O)O; X3 = OCCOCCN*

What was measured:
[1] = Stability of compounds in rat blood plasma; format: in vitro ADME
Summary of the method: (§1)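 Compounds at 5 μM final in rat, mouse or human plasma, incubated at 37 °C and sampled at 0, 6 and 24 h. Proteins precipitated with acetonitrile and the supernatant dried and reconstituted in 50% acetonitrile/0.1% TFA. PBS controls run for unstable compounds.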

[2] = Stability of compounds in mouse blood plasma; format: in vitro ADME
Summary of the method: as §1

[3] = test system: T-cell proliferation, lymph node cells of chimeric 0401-IE transgenic mice; conditions: DR4-LN; for IC50: read-out: Immunsupressive assays DR4-LN (IC50); for Immunsupressive assays DR4-LN (Max) % Inhibition: maximal inhibition
Summary of the method: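 Antigen-primed lymph node cells (1.5×10^5/well) from mice lacking murine class II and carrying a chimeric human RA-associated class II transgene, cultured 3 days with ovalbumin at half-maximal dose plus compound (~0.1–200 uM) in serum-free HL-1. Proliferation read by 3H-thymidine incorporation over the final 16 h.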

[4] = biological target: Cathepsin B1 (EC 3.4.22.1 from bovine spleen) (Bos taurus, UniProt P07688); conditions: Cathepsin B, 4 h
[5] = biological target: T1, LG2 (DR1: DRA1*0101 DRB1*0101) cells (Homo sapiens, UniProt P01903+P01911, A100R/D57E/F55L/F60I/F76Y/I96L/L162R/M171V/P40L/Q125E/R42F/V115G/Y59C); assay: Competitive binding to MHC II proteins expressed on LG2 cells; format: cell-based; conditions: for IC50: LG2 (0101)
T1 construct: MHC II Proteins Expressed on PRIESS and LG2 Cells; endogenous in cells; host or cells: LG2 cells
Protocol: For use in the binding assay the cells were re-suspended in medium containing 1% FCS at a density of 2.5×10^6 cells/ml.
The assay was performed in sterile 96 well polystyrene microtiter plates. A 10 fold dilution series of compounds (16 nM-1615 μM) in 1% FCS was prepared from 5 or 10 mM compound stock solutions in 10% DMSO/water. 50 μl of each compound dilution were added in duplicates to 50 μl of a 16 μM solution of indicator peptide in 1% FCS. Cell binding was initiated by adding 100 μl of 2.5×10^6 cells/ml 1% FCS to each well. Controls were included containing the DMSO concentration present in the solution with the highest compound concentration. The cells were incubated at 37° C., 6% CO2. After 4 hours the cells were washed with 200 μl PBS and lysed in 200 μl lysis buffer (50 mM sodium phosphate, 150 mM sodium chloride, 1% (w/v) NP-40, 25 mM iodoacetamide, 1 mM PMSF, 3.1% protease inhibitor cocktail: 0.32 g/l of Chymostatin, Antipain, Pepstatin A, Soybean trypsin inhibitor and Leupeptin each, pH 7.5) for 10 min.
After washing with PBS, 190 μl of cell lysate were transferred to the appropriate wells of the capture plate and incubated for 2 h at 4° C. The wells were washed six times with 200 μl/well cooled (4 to 8° C.) of 1×DELFIA wash (Wallac-ADL-GmbH, Freiburg), incubated with 100 μl of cooled Europium-streptavidin conjugate (Wallac-ADL-GmbH, Freiburg; diluted 1/1000 with DELFIA assay buffer) for 30 minutes at 4° C., again washed six times with cooled 1×DELFIA wash and, finally, incubated with 200 μl cooled DELFIA enhancement solution (Wallac-ADL-GmbH, Freiburg) for one hour at room temperature before reading the time-resolved europium fluorescence at λex Eu^3+: 340 nm and λem Eu^3+: 613 (615) nm (Wallac Victor^2 1420 Multilabel Counter, Wallac-ADL-GmbH, Freiburg).

[6] = Stability of compounds in human blood plasma; format: in vitro ADME
Summary of the method: as §1

[7] = test system: T-cell proliferation, DR14-LN; conditions: for Immunsupressive assays DR14-LN (Max) % Inhibition: maximal inhibition; for IC50: read-out: Immunsupressive assays DR14-LN (IC50)
[8] = Cell binding IC50 (uM) LG2 (0101)

SMILES | Stability (Arbitrary units) Rat 6 h [1] [Arbitrary units] | Stability (Arbitrary units) Rat 24 h [1] [Arbitrary units] | Stability (Arbitrary units) Mouse 6 h [2] [Arbitrary units] | Stability (Arbitrary units) Mouse 24 h [2] [Arbitrary units] | IC50 [3] | Stability (Arbitrary units) Cath B 4 h [4] [Arbitrary units] | IC50 [5, 8] | Stability (Arbitrary units) Human 6 h [6] [Arbitrary units] | Stability (Arbitrary units) Human 24 h [6] [Arbitrary units] | Immunsupressive assays DR4-LN (Max) % Inhibition [3] [%] | Immunsupressive assays DR14-LN (Max) % Inhibition [7] [%] | IC50 [7] [µM] | binding to MHC class II protein expressed on the surface of LG2 cells ([5]; compared to the Arg-containing equivalent) | IC50 ([5]; read-out: Cell binding IC50 (uM) LG2 (0101)) [µM]
CCCC[C@H](NC(=O)C1c2ccccc2CN1C(=O)[C@@H](NC(=O)[C@H](CC1CCCCC1)NC(C)=O)C1CCN(C(=N)N)CC1)C(=O)N(C)Cc1ccccc1 (single isomer, unassigned) [Compound P78-1] | 80 | 84 | 93 | 18 | 34 µM | 100 | 4.6 µM | 93 | 107 |  |  |  |  | 
CSCC[C@H](NC(=O)[C@@H]1Cc2ccccc2CN1C(=O)[C@H](CCCNC(=N)N)NC(=O)[C@H](CC1CCCCC1)NC(C)=O)C(=O)N1CC[C@H](c2ccccc2)[C@H]1C(N)=O [Compound P31, Ac-Cha-Arg-Tic-Met-βPhPro-NH2] (Ac-[Cha]R[Tic]M[Pro(3R-Ph)]-NH2) | 42 | 5 | 86 | 56 | 18 µM | 102 | 8.5 µM | 93 | 86 | 64 | 89 | 98 |  | 
CCCC[C@H](NC(=O)[C@@H]1Cc2ccccc2CN1C(=O)[C@H](CCCNC(=N)N)NC(=O)[C@H](CC1CCCCC1)NC(C)=O)C(=O)N1CC[C@H](c2ccccc2)[C@H]1C(=O)N[C@@H](CO)c1nc(C(=O)N(C)C)c(C(C)C)o1 [Compound P51, Ac-Cha-Arg-Tic-Nle-βPhPro-[S(oxaz)L]-NMe2] (Ac-[Cha]R[Tic][Nle][Pro(3R-Ph)][X1]-NMe2) | 81 | 60 |  | 136 | 38 µM and 36 µM | 103 | 3 µM | 119 | 129 | 100 | 99 | 52 |  | 
CCCC[C@H](NC(=O)[C@@H]1Cc2ccccc2CN1C(=O)[C@@H](NC(=O)[C@H](CC1CCCCC1)NC(C)=O)C1CCN(C(=N)N)CC1)C(=O)NCCOCCO [Compound P70, Ac-Cha-Gpg-Tic-Nle-N(H)CH2CH2OCH2CH2OH] (Ac-[Cha][Gly(1-amidinopiperidin-4-yl)][Tic][Nle]-X3) | 83 | 65 | 105 | 82 | 42 µM | 110 | 5.7 µM | 116 | 90 | 54 |  |  |  | 
CC(=O)N[C@@H](CC1CCCCC1)C(=O)N[C@H](C(=O)N1Cc2ccccc2C[C@H]1C(=O)N[C@@H](CC[S+](C)[O-])C(=O)N1CC[C@H](c2ccccc2)[C@H]1C(=O)N[C@@H](CO)c1nc(C(=O)N(C)C)c(C(C)C)o1)C1CCN(C(=N)N)CC1 (stereo partly drawn) [Compound P47, Ac-Cha-Gpg-Tic-Met(O)-βPhPro-[S(oxaz)L]-NMe2] (Ac-[Cha][Gly(1-amidinopiperidin-4-yl)][Tic][Met(O)][Pro(3R-Ph)][X1]-NMe2) | 116 | 103 | 126 | 111 | 77 µM | 100 | 4.6 µM | 126 | 140 | 77 |  |  | Improved binding | 
CSCC[C@H](NC(=O)C1c2ccccc2CN1C(=O)[C@H](CCCNC(=N)N)NC(=O)[C@H](CC1CCCCC1)NC(C)=O)C(N)=O (stereo partly drawn) [Compound P12-1, Ac-Cha-Arg-Disc-Met-NH2] (Ac-[Cha]R[ξDisc]M-NH2) | 67 | 10 | 76 | 38 | > 200 µM | 96 | 9.6 µM | 75 | 0 | 5 |  |  |  | 
CSCC[C@H](NC(=O)[C@@H]1Cc2ccccc2CN1C(=O)[C@H](CCCNC(=N)N)NC(=O)[C@H](CC1CCCCC1)NC(C)=O)C(N)=O [Compound P1, Ac-Cha-Arg-Tic-Met-NH2] (Ac-[Cha]R[Tic]M-NH2) | 11 | 0 |  | 5 | 64 µM and 84 µM | 87 | 8.8 µM and 6.8 µM | 94 |  | 41 |  |  |  | 
CSCC[C@H](NC(=O)C1c2ccccc2CN1C(=O)[C@@H](NC(=O)[C@H](CC1CCCCC1)NC(C)=O)C1CCN(C(=N)N)CC1)C(N)=O (stereo partly drawn) [Compound P66-1, Ac-Cha-Gpg-Disc-Met-NH2] (Ac-[Cha][Gly(1-amidinopiperidin-4-yl)][ξDisc]M-NH2) | 138 | 81 | 115 | 112 | 120 µM | 102 | 6 µM | 103 | 87 | 20 |  |  |  | 
CCCC[C@H](NC(=O)C1c2ccccc2CN1C(=O)[C@@H](NC(=O)[C@H](CC1CCCCC1)NC(C)=O)C1CCN(C(=N)N)CC1)C(=O)N(C)Cc1ccccc1 (single isomer, unassigned) [Compound P76-1, Ac-Cha-Gpg-Disc-Nle-N(Me)Bn] | 80 | 84 | 93 | 16 | 34 µM | 100 |  | 93 | 107 | 103 |  |  |  | 4.6
